In publication PMC3623016 (Journal of biomolecular screening, 2012):
Several values for one entry are separate records, joined by “and”; a condition that tells them apart may be missing. Identical values can stand only once. Entries after “also recorded” stand apart in the source; their conditions may differ. Counter-ions that a name gives are not always drawn.

What was measured:
[1] = system: Igrov1/T8 derived tumors; assay: Preliminary in vivo study, ABCG2 resistant tumors, combination with topotecan; design: species or system CB-17 SCID mice; conditions: for tumor size: intratumoral, daily, 0 to 96 hr, n = 3, p < 0.001
[2] = molecular target: T1, ABCG2 (Homo sapiens, UniProt Q9UNQ0); assay: JC-1 efflux inhibition dose-response, flow cytometry, Ig-MXP3 cells; format: cell-based; conditions: for ∼Fold G2 Selective: quotient of average ABCB1 IC50 and average ABCG2 IC50, JC-1 efflux assay
T1 sequence (Q9UNQ0 1-655): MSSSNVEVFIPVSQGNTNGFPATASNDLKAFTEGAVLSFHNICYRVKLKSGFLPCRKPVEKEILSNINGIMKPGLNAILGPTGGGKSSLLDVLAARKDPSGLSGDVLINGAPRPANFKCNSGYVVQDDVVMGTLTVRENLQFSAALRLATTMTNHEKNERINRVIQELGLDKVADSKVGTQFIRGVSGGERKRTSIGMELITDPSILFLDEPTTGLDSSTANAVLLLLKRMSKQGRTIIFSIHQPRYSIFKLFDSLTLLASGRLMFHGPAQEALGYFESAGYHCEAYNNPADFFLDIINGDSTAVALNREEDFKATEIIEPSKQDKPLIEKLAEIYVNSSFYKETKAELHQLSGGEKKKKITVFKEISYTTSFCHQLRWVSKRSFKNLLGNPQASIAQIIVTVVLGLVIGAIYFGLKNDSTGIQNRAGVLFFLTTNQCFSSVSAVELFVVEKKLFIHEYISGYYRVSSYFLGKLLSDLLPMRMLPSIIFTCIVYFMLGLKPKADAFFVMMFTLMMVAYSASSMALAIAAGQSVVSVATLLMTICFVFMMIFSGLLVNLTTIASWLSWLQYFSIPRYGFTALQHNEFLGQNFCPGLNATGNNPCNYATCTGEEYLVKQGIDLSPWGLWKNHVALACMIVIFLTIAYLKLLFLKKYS

[3] = system: Ig-MXP3 cells; assay: Direct cytotoxicity; format: cell-based
[4] = system: Jurkat-DNR cells
[5] = molecular target: T2, ABCB1 (Homo sapiens, UniProt P08183); assay: JC-1 efflux inhibition dose-response, flow cytometry, Jurkat-DNR cells
[6] = molecular target: T2, ABCB1; assay: Chemoreversal secondary assay
[7] = molecular target: T1, ABCG2; assay: Chemoreversal secondary assay
[8] = system: drug resistant (ABCG2 expressing) tumor cells; assay: Topotecan killing of drug resistant tumor cells; format: cell-based; conditions: read-out: EC50 resistant cells
[9] = system: non-resistant (ABCG2 non-expressing) parental tumor cells; assay: Topotecan killing of parental tumor cells; format: cell-based; conditions: read-out: EC50 parental cells

T2 sequence (P08183 whole entry): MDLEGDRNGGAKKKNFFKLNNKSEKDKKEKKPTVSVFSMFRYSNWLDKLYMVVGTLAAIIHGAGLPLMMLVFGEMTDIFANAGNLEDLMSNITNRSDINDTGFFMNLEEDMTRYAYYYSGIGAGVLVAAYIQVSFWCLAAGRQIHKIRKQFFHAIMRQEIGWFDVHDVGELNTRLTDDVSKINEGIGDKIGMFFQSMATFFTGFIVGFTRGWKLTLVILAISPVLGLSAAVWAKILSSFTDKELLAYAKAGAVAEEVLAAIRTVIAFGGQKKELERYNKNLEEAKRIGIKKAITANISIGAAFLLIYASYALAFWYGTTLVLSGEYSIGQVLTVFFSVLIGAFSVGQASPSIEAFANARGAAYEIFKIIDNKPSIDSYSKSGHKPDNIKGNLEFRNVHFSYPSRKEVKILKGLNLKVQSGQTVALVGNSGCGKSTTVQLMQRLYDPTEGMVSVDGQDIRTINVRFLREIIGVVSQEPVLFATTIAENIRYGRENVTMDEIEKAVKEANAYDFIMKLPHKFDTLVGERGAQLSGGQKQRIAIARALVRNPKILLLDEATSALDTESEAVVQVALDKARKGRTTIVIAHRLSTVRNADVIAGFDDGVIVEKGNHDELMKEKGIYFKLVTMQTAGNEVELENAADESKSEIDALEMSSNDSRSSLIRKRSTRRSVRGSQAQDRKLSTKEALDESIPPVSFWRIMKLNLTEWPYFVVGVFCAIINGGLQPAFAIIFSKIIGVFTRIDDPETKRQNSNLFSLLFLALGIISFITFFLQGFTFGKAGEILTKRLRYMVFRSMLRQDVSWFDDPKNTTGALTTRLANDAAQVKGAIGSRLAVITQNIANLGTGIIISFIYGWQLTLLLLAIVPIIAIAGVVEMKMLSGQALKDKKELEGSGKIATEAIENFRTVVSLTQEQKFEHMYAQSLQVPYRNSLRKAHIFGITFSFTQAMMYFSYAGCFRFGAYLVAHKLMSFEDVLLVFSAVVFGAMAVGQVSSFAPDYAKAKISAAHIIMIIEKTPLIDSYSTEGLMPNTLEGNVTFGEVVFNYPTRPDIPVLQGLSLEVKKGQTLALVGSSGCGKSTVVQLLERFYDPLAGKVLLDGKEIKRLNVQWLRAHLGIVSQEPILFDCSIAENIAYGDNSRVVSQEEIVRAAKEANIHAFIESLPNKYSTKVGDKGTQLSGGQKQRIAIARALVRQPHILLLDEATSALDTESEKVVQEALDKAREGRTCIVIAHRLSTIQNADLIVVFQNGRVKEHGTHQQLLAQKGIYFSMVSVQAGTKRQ

Row | SMILES | ∼Fold G2 Selective [2] | ABCG2 TD50 [3] [µM] | ABCB1 TD50 [4] [µM] | further results
1 | O=C(c1ccoc1)N1CCN(c2cc(-c3ccco3)nc3cc(-c4ccccc4)nn23)CC1 [Compound 1] | 36 fold and 35.8 fold | 18.30 | 5.52 | tumor size ([1]; 100 nM of 1 with 150 nM TPT): dramatically reduced tumor size; also recorded: Significant tumor reduction; higher potency in ABCG2 than Ko143 ([2]; JC-1 efflux reporter system): approximately 100 fold; EC50 ([2]; read-out: ABCG2 EC50, efflux assay, as worded): 0.13 µM; EC50 ([5]; read-out: ABCB1 EC50, efflux assay, as worded): 4.65 µM
2 | CN(C)C(=O)CCSC(SCCC(=O)O)c1cccc(/C=C/c2ccc3ccc(Cl)cc3n2)c1 (stereo not drawn) [Compound 5, MK571, reference compound] | – | – | – | IC50 [2]: > 50 µM; EC50 [6]: 20.4 µM; IC50 [5]: > 50 µM; EC50 [7]: 57.4 µM
3 | Cc1nc2cc(-c3cccc(F)c3)nn2c(N2CCN(C(=O)c3ccco3)CC2)c1C [Compound 7] | – | – | – | tumor size ([1]; 500 nM of 7 with 150 nM TPT): dramatically reduced tumor size; also recorded: Significant tumor reduction
4 | O=C(Cc1ccccc1)N1CCN(c2cc(-c3ccccc3)nc3cc(-c4cccc(Cl)c4)nn23)CC1 [Compound 24] | 0.8 fold | >100 | 17.80 | –
5 | O=C(c1ccoc1)N1CCN(c2cc(-c3cccnc3)nc3cc(-c4cccc(Cl)c4)nn23)CC1 [Compound 30] | 2.9 fold | 5.77 | 5.33 | –
6 | O=C(c1ccoc1)N1CCN(c2cc(-c3ccncc3)nc3cc(-c4cccc(Cl)c4)nn23)CC1 [Compound 31] | 2.5 fold | 57.80 | 13.50 | –
7 | COc1ccccc1-c1cc2nc(-c3ccccc3)cc(N3CCN(C(=O)c4ccoc4)CC3)n2n1 [Compound 34] | 4.8 fold | 6.50 | 4.37 | –
8 | COc1ccc(-c2cc3nc(-c4ccccc4)cc(N4CCN(C(=O)c5ccoc5)CC4)n3n2)cc1 [Compound 36] | 1.2 fold | >100 | 5.54 | –
9 | COc1ccccc1-c1cc(N2CCN(C(=O)c3ccoc3)CC2)n2nc(-c3ccccc3)cc2n1 [Compound 44] | 1.2 fold | 7.62 | 3.73 | –
10 | COc1cccc(-c2cc(N3CCN(C(=O)c4ccoc4)CC3)n3nc(-c4ccccc4)cc3n2)c1 [Compound 65] | 83 fold | 67.80 | 5.77 | –
11 | CC[C@@]1(O)C(=O)OCc2c1cc1n(c2=O)Cc2cc3c(CN(C)C)c(O)ccc3nc2-1 [TPT, topotecan hydrochloride hydrate] | – | – | – | growth of tumors ([1]; 150 nM TPT alone, intratumoral (data not shown)): did not affect the growth of tumors; EC50 [8]: 0.311 µM; EC50 [9]: 0.007 µM
